Experimental findings from patent US20250163047A1, “HETEROCYCLIC COMPOUNDS, COMPOSITIONS THEREOF, AND METHODS OF TREATMENT THEREWITH” (BeiGene, Ltd., priority 2022, published 2025) are described below.

One assay has as its target T1, Cbl (aa49-434) (Homo sapiens, UniProt P22681).
T1 construct: Cbl (aa49-434, in-house); made in house
T1 sequence (P22681 49-434): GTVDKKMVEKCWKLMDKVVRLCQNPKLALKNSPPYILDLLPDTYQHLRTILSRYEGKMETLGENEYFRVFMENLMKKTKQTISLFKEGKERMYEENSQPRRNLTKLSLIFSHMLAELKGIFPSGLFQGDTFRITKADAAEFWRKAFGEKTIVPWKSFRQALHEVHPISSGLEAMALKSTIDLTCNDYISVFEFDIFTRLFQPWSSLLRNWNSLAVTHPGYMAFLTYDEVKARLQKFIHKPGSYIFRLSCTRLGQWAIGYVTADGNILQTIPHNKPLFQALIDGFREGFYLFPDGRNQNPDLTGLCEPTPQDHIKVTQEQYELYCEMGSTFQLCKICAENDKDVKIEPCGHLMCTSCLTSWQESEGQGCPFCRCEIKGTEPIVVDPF
Nature of the assay: Co-expressed Cbl with BirA biochemical assay (CBL/E2-Ub binding, HTRF). Conditions: 0.6 nM Cbl co-expressed with BirA, read-out: co-express CBL/E2-Ub-binding assay IC50. From the text: (§1) The assay in the absence of a Cbl-b/Cbl inhibitor, where phosphorylation of Cbl-b/Cbl by the Src kinase allows UbcH5B-Ub to bind to Cbl-b/Cbl and brings the Bodipy-Fluorescein tagged ubiquitin in proximity to the streptavidin-terbium bound to the N-terminal biotinylated Avi-tagged Cbl-b/Cbl. […] The lack of a FRET signal indicates Cbl-b/Cbl is inhibited by the Cbl-b/Cbl inhibitor.
On the technique in general: TR-FRET usually uses a lanthanide donor and a delayed reading to cut background.

The target in another assay is T2, Cbl-b (aa36-427) (Homo sapiens, UniProt Q13191).
T2 construct: Cbl-b (aa36-427, in-house); made in house
The assay is described as follows: Co-expressed Cbl-b with BirA biochemical assay (CBLB/E2-Ub binding, HTRF). Conditions: 0.6 nM Cbl-b co-expressed with BirA, HTRF; read-out: co-express CBLB/E2-Ub-binding assay IC50.
From the text: as §1

T2 sequence (Q13191 36-427): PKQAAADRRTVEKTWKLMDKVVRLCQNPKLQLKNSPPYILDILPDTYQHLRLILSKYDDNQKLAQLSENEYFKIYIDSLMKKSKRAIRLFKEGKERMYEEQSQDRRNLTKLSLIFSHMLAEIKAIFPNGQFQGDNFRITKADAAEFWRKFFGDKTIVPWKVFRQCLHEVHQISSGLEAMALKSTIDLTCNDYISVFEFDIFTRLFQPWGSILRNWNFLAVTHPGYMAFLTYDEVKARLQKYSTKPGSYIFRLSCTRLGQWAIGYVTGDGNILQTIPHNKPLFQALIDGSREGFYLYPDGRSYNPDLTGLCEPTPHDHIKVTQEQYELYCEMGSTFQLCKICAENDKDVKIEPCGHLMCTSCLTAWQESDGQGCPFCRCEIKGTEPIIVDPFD

Turning to `CCn1cnnc1[C@]1(c2cccc(NC(=O)c3cc(CNC4(C)CC4)cn4ccnc34)c2)C[C@H](C)C1` [Compound A85, N-(3-((1s, 3s)-1-(4-ethyl-4H-1,2,4-triazol-3-yl)-3-methylcyclobutyl)phenyl)-6-(((1-methylcyclopropyl)amino)methyl)imidazo[1,2-a]pyridine-8-carboxamide], the IC50 came to 26 nM at Cbl (aa49-434) and 3.4 nM at Cbl-b (aa36-427).
The like results for `Cn1cnnc1[C@]1(c2cccc(NC(=O)c3cc(CNC4(C)CCC4)cn4ccnc34)c2)C[C@H](CC#N)C1` [Compound A36, N-(3-((1s, 3s)-3-(cyanomethyl)-1-(4-methyl-4H-1,2,4-triazol-3-yl)cyclobutyl)phenyl)-6-(((1-methylcyclobutyl)amino)methyl)imidazo[1,2-a]pyridine-8-carboxamide compound with N-(3-((1s, 3s)-3-(cyanomethyl)-1-(4-methyl-4H-1,2,4-triazol-3-yl)cyclobutyl)phenyl)-6-formylimidazo[1,2-a]pyridine-8-carboxamide (1:1)] were, in that order, 16 nM and 1.7 nM.
The like results for `Cc1cnc2c(C(=O)Nc3cccc([C@]4(c5nncn5C)C[C@@H](CC#N)C4)c3)cc(CN3CCC[C@H](C)C3)cn12` [Compound A10, 3-methyl-6-{[(3S)-3-methylpiperidin-1-yl]methyl}-N-{3-[(1s, 3s)-3-(cyanomethyl)-1-(4-methyl-1,2,4-triazol-3-yl)cyclobutyl]phenyl}imidazo[1,2-a]pyridine-8-carboxamide] were, in that order, 70.1 nM and 12 nM.
The corresponding values for `Cn1cnnc1[C@]1(c2cccc(NC(=O)c3cc(CNC4(C)CCC4)cn4c(F)cnc34)c2)C[C@H](C)C1` [Compound A44, 3-fluoro-N-(3-((1s, 3s)-3-methyl-1-(4-methyl-4H-1,2,4-triazol-3-yl)cyclobutyl)phenyl)-6-(((1-methylcyclobutyl)amino)methyl)imidazo[1,2-a]pyridine-8-carboxamide] are 7.7 nM and 1.8 nM.
Take `Cn1cnnc1[C@]1(c2cncc(NC(=O)c3cc(CNC4(C)CCC4)c4[nH]cc(F)c4n3)c2)C[C@H](C)C1` [Compound B49, 3-fluoro-N-(5-((1s, 3s)-3-methyl-1-(4-methyl-4H-1,2,4-triazol-3-yl)cyclobutyl)pyridin-3-yl)-7-(((1-methylcyclobutyl)amino)methyl)-1H-pyrrolo[3,2-b]pyridine-5-carboxamide]: the IC50 was determined as 14 nM at Cbl (aa49-434) and 3.2 nM at Cbl-b (aa36-427).
The like results for `Cn1cnnc1[C@]1(c2cncc(NC(=O)c3cc(CNCC4CCC4)c4c(n3)C(C)(C)CC4)c2)C[C@H](C)C1` [Compound C29, 4-(((cyclobutylmethyl)amino)methyl)-7,7-dimethyl-N-(5-((1s, 3s)-3-methyl-1-(4-methyl-4H-1,2,4-triazol-3-yl)cyclobutyl)pyridin-3-yl)-6,7-dihydro-5H-cyclopenta[b]pyridine-2-carboxamide] were, in that order, 9.6 nM and 4.2 nM.
The corresponding values for `Cn1cnnc1[C@]1(c2cccc(NC(=O)c3cc(CNC4(C)CC4)cc4c(F)cnn34)c2)C[C@H](C)C1` [Compound A92, 3-fluoro-N-(3-((1s, 3s)-3-methyl-1-(4-methyl-4H-1,2,4-triazol-3-yl)cyclobutyl)phenyl)-5-(((1-methylcyclopropyl)amino)methyl)pyrazolo[1,5-a]pyridine-7-carboxamide] are 2.5 nM and 0.4 nM.
Regarding `Cn1cnnc1[C@]1(c2cccc(NC(=O)c3cc(CNC4(C)CC4)cn4ccnc34)c2)C[C@H](C)C1` [Compound A16, N-(3-((1s, 3s)-3-methyl-1-(4-methyl-4H-1,2,4-triazol-3-yl)cyclobutyl)phenyl)-6-(((1-methylcyclopropyl)amino)methyl)imidazo[1,2-a]pyridine-8-carboxamide], the IC50 was 5.9 nM at Cbl (aa49-434) and 0.9 nM at Cbl-b (aa36-427).
The like results for `Cn1cnnc1[C@]1(c2cccc(NC(=O)c3cc(CNC4CCCCCC4)c4c(n3)C(C)(C)CC4)c2)C[C@H](CC#N)C1` [Compound C54, N-(3-((1s, 3s)-3-(cyanomethyl)-1-(4-methyl-4H-1,2,4-triazol-3-yl)cyclobutyl)phenyl)-4-((cycloheptylamino)methyl)-7,7-dimethyl-6,7-dihydro-5H-cyclopenta[b]pyridine-2-carboxamide] were, in that order, 6.8 nM and 1.3 nM.
The like results for `Cn1cnnc1[C@]1(c2cccc(NC(=O)c3cc(CNCC4(C)CCCC4)c4c(n3)C(C)(C)CN4)c2)C[C@H](CC#N)C1` [Compound C22, 3,3-dimethyl-7-({[(1-methylcyclopentyl)methyl]amino}methyl)-N-{3-[(1s, 3s)-3-(cyanomethyl)-1-(4-methyl-1,2,4-triazol-3-yl)cyclobutyl]phenyl}-1H,2H-pyrrolo[3,2-b]pyridine-5-carboxamide] were, in that order, 6.1 nM and 1.4 nM.
The corresponding values for `Cn1cnnc1[C@]1(c2cccc(NC(=O)c3cc(CNCC4CCCC4)c4c(n3)C(C)(C)CN4)c2)C[C@H](C)C1` [Compound C45, 7-{[(cyclopentylmethyl)amino]methyl}-3,3-dimethyl-N-{3-[(1r, 3s)-3-methyl-1-(4-methyl-1,2,4-triazol-3-yl)cyclobutyl]phenyl}-1H,2H-pyrrolo[3,2-b]pyridine-5-carboxamide] are 5.4 nM and 1.3 nM.
On to `CC(C)CNCc1cc(C(=O)Nc2cncc([C@]3(c4nncn4C)C[C@@H](C)C3)c2)nc2c(F)c[nH]c12` [Compound B48, 3-fluoro-7-((isobutylamino)methyl)-N-(5-((1s, 3s)-3-methyl-1-(4-methyl-4H-1,2,4-triazol-3-yl)cyclobutyl)pyridin-3-yl)-1H-pyrrolo[3,2-b]pyridine-5-carboxamide], for which the IC50 is 3.2 nM at Cbl (aa49-434) and 0.89 nM at Cbl-b (aa36-427).
With `C[C@H]1CCCN(Cc2cc(C(=O)Nc3cccc(C4(c5nncn5C)CC(CC#N)C4)c3)nc3c2CCC3(C)C)C1` (stereo partly drawn) [Compound C7, (S)—N-(3-(3-(cyanomethyl)-1-(4-methyl-4H-1,2,4-triazol-3-yl)cyclobutyl)phenyl)-7,7-dimethyl-4-((3-methylpiperidin-1-yl)methyl)-6,7-dihydro-5H-cyclopenta[b]pyridine-2-carboxamide], the IC50 on Cbl (aa49-434) was found to be 19.7 nM; at Cbl-b (aa36-427) it was 2.56 nM.
The like results for `Cn1cnnc1[C@]1(c2cccc(NC(=O)c3cc(CNCC4CCC4)cn4c(F)cnc34)c2)C[C@H](C)C1` [Compound A52, 6-(((cyclobutylmethyl)amino)methyl)-3-fluoro-N-(3-((1s, 3s)-3-methyl-1-(4-methyl-4H-1,2,4-triazol-3-yl)cyclobutyl)phenyl)imidazo[1,2-a]pyridine-8-carboxamide] were, in that order, 3.4 nM and 0.8 nM.
The corresponding values for `Cn1cnnc1[C@]1(c2cccc(NC(=O)c3cc(CNC4(C)CCC4)c4c(n3)C(C)(C)CO4)c2)C[C@H](CC#N)C1` [Compound C23, N-(3-((1s, 3s)-3-(cyanomethyl)-1-(4-methyl-4H-1,2,4-triazol-3-yl)cyclobutyl)phenyl)-3,3-dimethyl-7-(((1-methylcyclobutyl)amino)methyl)-2,3-dihydrofuro[3,2-b]pyridine-5-carboxamide] are 100 nM and 6.3 nM.
With `Cn1cnnc1[C@]1(c2cccc(NC(=O)c3cc(CNC4(C)CC4)c4[nH]cc(F)c4n3)c2)C[C@H](CC#N)C1` [Compound B54, N-(3-((1s, 3s)-3-(cyanomethyl)-1-(4-methyl-4H-1,2,4-triazol-3-yl)cyclobutyl)phenyl)-3-fluoro-7-(((1-methylcyclopropyl)amino)methyl)-1H-pyrrolo[3,2-b]pyridine-5-carboxamide], the IC50 at Cbl (aa49-434) worked out at 12 nM; at Cbl-b (aa36-427), 1.2 nM.
The corresponding values for `C[C@H]1CCCN(Cc2cc(C(=O)Nc3cccc([C@]4(c5nncn5C)C[C@@H](CC#N)C4)c3)nc3c2OCC3(C)C)C1` [Compound C10, 3,3-dimethyl-7-{[(3S)-3-methylpiperidin-1-yl]methyl}-N-{3-[(1s, 3s)-3-(cyanomethyl)-1-(4-methyl-1,2,4-triazol-3-yl)cyclobutyl]phenyl}-2H-furo[3,2-b]pyridine-5-carboxamide] are 26.6 nM and 2.3 nM.
The corresponding values for `C[C@@H]1CN(Cc2cc(C(=O)Nc3cccc([C@]4(c5nncn5C)C[C@@H](CC#N)C4)c3)nc3cc[nH]c23)C[C@H](C)C1(F)F` [Compound B19, N-(3-((1s,3S)-3-(cyanomethyl)-1-(4-methyl-4H-1,2,4-triazol-3-yl)cyclobutyl)phenyl)-7-(((3R,5S)-4,4-difluoro-3,5-dimethylpiperidin-1-yl)methyl)-1H-pyrrolo[3,2-b]pyridine-5-carboxamide] are 77.7 nM and 10.3 nM.
